Values after ≈ are worked out from the molar mass of the structure shown.
Key:
[1] = system: Enterococcus sp.; assay: In vitro minimum inhibitory concentration against Enterococcus species (11 strains, including VRE); type: functional
[2] = system: Enterococcus faecium; assay: In vitro minimum inhibitory concentration against vancomycin-resistant Enterococcus faecium (GC 2243); type: functional
[3] = system: Enterococcus faecium; assay: In vitro minimum inhibitory concentration against vancomycin-resistant Enterococcus faecium (GC 4558); type: functional
[4] = system: Enterococcus faecium; assay: In vitro minimum inhibitory concentration against vancomycin-susceptible Enterococcus faecium (GC 4556); type: functional
[5] = system: Enterococcus faecium; assay: In vitro minimum inhibitory concentration against vancomycin-susceptible Enterococcus faecium (GC 4557); type: functional
[6] = system: Enterococcus faecalis; assay: In vitro minimum inhibitory concentration against vancomycin-susceptible Enterococcus faecalis (GC 4555); type: functional
[7] = system: Enterococcus faecalis; assay: In vitro minimum inhibitory concentration against vancomycin-resistant Enterococcus faecalis (GC 2242); type: functional
[8] = system: Enterococcus faecalis; assay: In vitro minimum inhibitory concentration against vancomycin-resistant Enterococcus faecalis (GC 3059); type: functional
[9] = system: Enterococcus faecalis; assay: In vitro minimum inhibitory concentration against vancomycin-resistant Enterococcus faecalis (GC 6189); type: functional
[10] = system: Enterococcus faecalis; assay: In vitro minimum inhibitory concentration against vancomycin-susceptible Enterococcus faecalis (GC 2691); type: functional
[11] = system: Enterococcus faecalis; assay: In vitro minimum inhibitory concentration against vancomycin-susceptible Enterococcus faecalis (GC 4552); type: functional
[12] = system: Enterococcus faecalis; assay: In vitro minimum inhibitory concentration against vancomycin-susceptible Enterococcus faecalis (GC 4553); type: functional
[13] = system: Micrococcus luteus; assay: In vitro minimum inhibitory concentration against Micrococcus lutea (GC 4562); type: functional
[14] = system: Staphylococcus aureus; assay: In vitro minimum inhibitory concentration against Staphylococcus aureus (10strains, including MRSA); type: functional
[15] = system: Streptococcus agalactiae; assay: In vitro minimum inhibitory concentration against Streptococcus agalactiae (GC4564); type: functional
[16] = system: Staphylococcus aureus; assay: In vitro minimum inhibitory concentration against Methicillin-resistant Staphylococcus aureus (GC 1131); type: functional
[17] = system: Staphylococcus aureus; assay: In vitro minimum inhibitory concentration against Methicillin-resistant Staphylococcus aureus (GC 2216); type: functional
[18] = system: Staphylococcus aureus; assay: In vitro minimum inhibitory concentration against Methicillin-resistant Staphylococcus aureus (GC 4542); type: functional
[19] = system: Staphylococcus aureus; assay: In vitro minimum inhibitory concentration against Methicillin-resistant Staphylococcus aureus (GC 4543); type: functional
[20] = system: Staphylococcus aureus; assay: In vitro minimum inhibitory concentration against Methicillin-resistant Staphylococcus aureus(GC 4541); type: functional
[21] = system: Staphylococcus aureus; assay: In vitro minimum inhibitory concentration against Methicillin-resistant Staphylococcus aureus(GC 4545); type: functional
[22] = system: Staphylococcus aureus; assay: In vitro minimum inhibitory concentration against glycopeptide tntermediate Staphylococcus aureus (GC 3051); type: functional
[23] = system: Staphylococcus aureus; assay: In vitro minimum inhibitory concentration against glycopeptide tntermediate Staphylococcus aureus (GC 3066); type: functional
[24] = system: Staphylococcus haemolyticus; assay: In vitro minimum inhibitory concentration against methicillin-resistant Coagulase-negative Staphylococci (MRCNS) (GC 4546)); type: functional
[25] = system: Staphylococcus haemolyticus; assay: In vitro minimum inhibitory concentration against methicillin-resistant Coagulase-negative Staphylococci (MRCNS) (GC 4547)); type: functional
[26] = system: Streptococcus pneumoniae; assay: In vitro minimum inhibitory concentration against Penicillin resistant Streptococcus pneumoniae (GC 1894); type: functional
[27] = system: Streptococcus pneumoniae; assay: In vitro minimum inhibitory concentration against Penicillin susceptible Streptococcus pneumoniae (GC 4565); type: functional
[28] = system: Streptococcus pneumoniae; assay: In vitro minimum inhibitory concentration against Penicillin susceptible Streptococcus pneumoniae (GC 6242); type: functional
[29] = system: Streptococcus pyogenes; assay: In vitro minimum inhibitory concentration against Streptococcus pyogenes (GC 4563); type: functional
[30] = system: Staphylococcus haemolyticus; assay: In vitro minimum inhibitory concentration against methicillin-susceptible Coagulase-negative Staphylococci (MSCNS) (GC 4549)); type: functional
[31] = system: Staphylococcus haemolyticus; assay: In vitro minimum inhibitory concentration against methicillin-susceptible Coagulase-negative Staphylococci (MSCNS) (GC 4551); type: functional
[32] = system: Staphylococcus haemolyticus; assay: In vitro minimum inhibitory concentration against methicillin-susceptible Coagulase-negative Staphylococci (MSCNS) (GC 6257); type: functional
[33] = system: Streptococcus; assay: In vitro minimum inhibitory concentration against Streptococcus Species (5 strains, including PRSP); type: functional
[34] = system: Bacillus cereus; assay: In vitro minimum inhibitory concentration against Bacillus cereus (GC 4561) assay organism; type: functional
[35] = system: Staphylococcus haemolyticus; assay: In vitro minimum inhibitory concentration against methicillin-resistant Coagulase-negative Staphylococci (MRCNS) (GC 4548)); type: functional
[36] = system: Enterococcus faecalis; assay: In vitro minimum inhibitory concentration against vancomycin-susceptible Enterococcus faecalis (GC 4554); type: functional
[37] = system: Staphylococcus aureus; assay: In vitro minimum inhibitory concentration against Methicillin-resistant Staphylococcus aureus(GC 4544); type: functional
[38] = system: Streptococcus pyogenes; assay: In vitro minimum inhibitory concentration against Streptococcus pyogenes (GC 4563)
[39] = system: Streptococcus agalactiae; assay: In vitro minimum inhibitory concentration against Streptococcus agalactiae (GC4564)
[40] = system: Streptococcus pneumoniae; assay: In vitro minimum inhibitory concentration against Penicillin susceptible Streptococcus pneumoniae (GC 4565)

`Cc1ccc(Oc2ccc(-c3nc4ccc(C[C@H]5NC(=O)[C@H]([C@@H](C)c6ccccc6)NC(=O)CNC(=O)[C@H](CO)NC(=O)[C@@H]([C@@H](O)[C@@H]6CN=C(N)N6[C@H]6O[C@H](CO)[C@@H](O)[C@H](O)[C@@H]6O)NC(=O)[C@H]([C@H](O)[C@@H]6CN=C(N)N6)NC5=O)cc4o3)cc2)cc1` was tested, and the MIC [1] was 4 µg/mL (≈ 3.39 µM), the MIC [2] was 8 µg/mL (≈ 6.79 µM) and the MIC [3] was 4 µg/mL (≈ 3.39 µM). The MIC [4] was 8 µg/mL (≈ 6.79 µM), the MIC [5] was 4 µg/mL (≈ 3.39 µM) and the MIC [6] was 8 µg/mL (≈ 6.79 µM). For the same molecule, the MIC [7] was 4 µg/mL (≈ 3.39 µM), the MIC [8] was 8 µg/mL (≈ 6.79 µM) and the MIC [9] was 8 µg/mL (≈ 6.79 µM). The MIC [10] was 8 µg/mL (≈ 6.79 µM), the MIC [11] was 8 µg/mL (≈ 6.79 µM) and the MIC [12] was 4 µg/mL (≈ 3.39 µM). It also gave an MIC [13] of 1 µg/mL (≈ 0.849 µM), an MIC [14] of 4 µg/mL (≈ 3.39 µM) and an MIC [15] of 4 µg/mL (≈ 3.39 µM). The MIC [16] was 8 µg/mL (≈ 6.79 µM), the MIC [17] was 8 µg/mL (≈ 6.79 µM) and the MIC [18] was 8 µg/mL (≈ 6.79 µM). The MIC [19] was 4 µg/mL (≈ 3.39 µM), the MIC [20] was 8 µg/mL (≈ 6.79 µM) and the MIC [21] was 4 µg/mL (≈ 3.39 µM). The MIC [22] was 4 µg/mL (≈ 3.39 µM), the MIC [23] was 4 µg/mL (≈ 3.39 µM) and the MIC [24] was 4 µg/mL (≈ 3.39 µM). It also gave an MIC [25] of 8 µg/mL (≈ 6.79 µM), an MIC [26] of 4 µg/mL (≈ 3.39 µM) and an MIC [27] of 4 µg/mL (≈ 3.39 µM). For the same molecule, the MIC [28] was 4 µg/mL (≈ 3.39 µM), the MIC [29] was 1 µg/mL (≈ 0.849 µM) and the MIC [30] was 4 µg/mL (≈ 3.39 µM). For the same molecule, the MIC [31] was 4 µg/mL (≈ 3.39 µM), the MIC [32] was 2 µg/mL (≈ 1.7 µM) and the MIC [33] was 1 µg/mL (≈ 0.849 µM). It also gave an MIC [34] of 8 µg/mL (≈ 6.79 µM), an MIC [35] of 4 µg/mL (≈ 3.39 µM) and an MIC [36] of 8 µg/mL (≈ 6.79 µM). The MIC [37] was 8 µg/mL (≈ 6.79 µM).

Work on `C[C@@H](c1ccccc1)[C@@H]1NC(=O)CNC(=O)[C@H](CO)NC(=O)[C@@H]([C@@H](O)[C@@H]2CN=C(N)N2[C@H]2O[C@H](CO)[C@@H](O)[C@H](O)[C@@H]2O)NC(=O)[C@H]([C@H](O)[C@@H]2CN=C(N)N2)NC(=O)[C@@H](Cc2ccc3nc(SCC(=O)c4ccc(Cl)cc4)oc3c2)NC1=O` yielded an MIC [1] of 2 µg/mL (≈ 1.69 µM), an MIC [2] of 8 µg/mL (≈ 6.78 µM) and an MIC [3] of 4 µg/mL (≈ 3.39 µM). For the same molecule, the MIC [4] was 8 µg/mL (≈ 6.78 µM), the MIC [5] was 2 µg/mL (≈ 1.69 µM) and the MIC [6] was 16 µg/mL (≈ 13.6 µM). For the same molecule, the MIC [7] was 16 µg/mL (≈ 13.6 µM), the MIC [8] was 32 µg/mL (≈ 27.1 µM) and the MIC [9] was 16 µg/mL (≈ 13.6 µM). It also gave an MIC [10] of 16 µg/mL (≈ 13.6 µM), an MIC [11] of 2 µg/mL (≈ 1.69 µM) and an MIC [12] of 4 µg/mL (≈ 3.39 µM). It also gave an MIC [13] of 16 µg/mL (≈ 13.6 µM), an MIC [14] of 2 µg/mL (≈ 1.69 µM) and an MIC [15] of 4 µg/mL (≈ 3.39 µM). It also gave an MIC [16] of 4 µg/mL (≈ 3.39 µM), an MIC [17] of 8 µg/mL (≈ 6.78 µM) and an MIC [18] of 4 µg/mL (≈ 3.39 µM). For the same molecule, the MIC [19] was 2 µg/mL (≈ 1.69 µM), the MIC [20] was 4 µg/mL (≈ 3.39 µM) and the MIC [21] was 2 µg/mL (≈ 1.69 µM). For the same molecule, the MIC [22] was 4 µg/mL (≈ 3.39 µM), the MIC [23] was 4 µg/mL (≈ 3.39 µM) and the MIC [24] was 1 µg/mL (≈ 0.847 µM). The MIC [25] was 4 µg/mL (≈ 3.39 µM), the MIC [26] was 8 µg/mL (≈ 6.78 µM) and the MIC [27] was 8 µg/mL (≈ 6.78 µM). For the same molecule, the MIC [28] was 8 µg/mL (≈ 6.78 µM), the MIC [29] was 2 µg/mL (≈ 1.69 µM) and the MIC [30] was 1 µg/mL (≈ 0.847 µM). For the same molecule, the MIC [31] was 4 µg/mL (≈ 3.39 µM), the MIC [32] was 1 µg/mL (≈ 0.847 µM) and the MIC [33] was 2 µg/mL (≈ 1.69 µM). For the same molecule, the MIC [34] was 1 µg/mL (≈ 0.847 µM), the MIC [35] was 2 µg/mL (≈ 1.69 µM) and the MIC [36] was 16 µg/mL (≈ 13.6 µM). The MIC [37] was 4 µg/mL (≈ 3.39 µM).

`C[C@@H](c1ccccc1)[C@@H]1NC(=O)CNC(=O)[C@H](CO)NC(=O)[C@@H]([C@@H](O)[C@@H]2CN=C(N)N2[C@H]2O[C@H](CO)[C@@H](O)[C@H](O)[C@@H]2O)NC(=O)[C@H]([C@H](O)[C@@H]2CN=C(N)N2)NC(=O)[C@@H](Cc2ccc3nc(-c4cccc(F)c4)oc3c2)NC1=O` gave an MIC [1] of 16 µg/mL (≈ 14.7 µM), an MIC [2] of 32 µg/mL (≈ 29.4 µM) and an MIC [3] of 16 µg/mL (≈ 14.7 µM). For the same molecule, the MIC [4] was 64 µg/mL (≈ 58.7 µM), the MIC [5] was 8 µg/mL (≈ 7.34 µM) and the MIC [6] was 64 µg/mL (≈ 58.7 µM). The MIC [7] was 32 µg/mL (≈ 29.4 µM), the MIC [8] was 64 µg/mL (≈ 58.7 µM) and the MIC [9] was 32 µg/mL (≈ 29.4 µM). The MIC [10] was 32 µg/mL (≈ 29.4 µM), the MIC [11] was 64 µg/mL (≈ 58.7 µM) and the MIC [12] was 16 µg/mL (≈ 14.7 µM). The MIC [13] was 2 µg/mL (≈ 1.83 µM), the MIC [14] was 8 µg/mL (≈ 7.34 µM) and the MIC [16] was 8 µg/mL (≈ 7.34 µM). For the same molecule, the MIC [17] was 8 µg/mL (≈ 7.34 µM), the MIC [18] was 8 µg/mL (≈ 7.34 µM) and the MIC [19] was 8 µg/mL (≈ 7.34 µM). For the same molecule, the MIC [20] was 16 µg/mL (≈ 14.7 µM), the MIC [21] was 8 µg/mL (≈ 7.34 µM) and the MIC [22] was 16 µg/mL (≈ 14.7 µM). The MIC [23] was 16 µg/mL (≈ 14.7 µM), the MIC [24] was 4 µg/mL (≈ 3.67 µM) and the MIC [25] was 8 µg/mL (≈ 7.34 µM). The MIC [26] was 16 µg/mL (≈ 14.7 µM), the MIC [28] was 8 µg/mL (≈ 7.34 µM) and the MIC [30] was 16 µg/mL (≈ 14.7 µM). It also gave an MIC [31] of 8 µg/mL (≈ 7.34 µM), an MIC [32] of 4 µg/mL (≈ 3.67 µM) and an MIC [33] of 4 µg/mL (≈ 3.67 µM). It also gave an MIC [34] of 64 µg/mL (≈ 58.7 µM), an MIC [35] of 4 µg/mL (≈ 3.67 µM) and an MIC [36] of 64 µg/mL (≈ 58.7 µM). It also gave an MIC [37] of 8 µg/mL (≈ 7.34 µM), an MIC [38] of 4 µg/mL (≈ 3.67 µM) and an MIC [39] of 8 µg/mL (≈ 7.34 µM). The MIC [40] was 16 µg/mL (≈ 14.7 µM).
